The record followed here is the supplement of paper PMC11368000.

For one assay, the system named is 30145 (donor line of iPSC-derived cardiomyocytes). As to the kind of experiment: POD (EC95) for loss of peak frequency (asystole) vs vehicle; higher = less potent (higher point of departure). The following applies: exposure time: 90 min. How it is done:
(§1)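 Human iPSC-derived cardiomyocytes from 16 donors were exposed for 90 min at 37 °C to each PFAS at 0.1, 1, 10 and 100 µM in 0.5% DMSO, 384-well plates. Kinetic Ca2+ flux (FLIPR) and Hoechst nuclei counts were normalised to vehicle wells and fitted with a hierarchical Bayesian Hill model to give donor-specific PODs: EC05 for beat-rate increase or decrease and for decay-to-rise ratio increase (QT proxy), EC95 for peak-frequency loss (asystole), EC10 for total cell number loss. 0.03 µM is the lower bound.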
As for `O=C(O)C(F)(F)C(F)(F)C(F)(F)F` [Perfluorobutanoic_acid], the POD vs vehicle was greater than 100 µM.
The same measure, in the same setting: the value for `O=C(O)C(F)(F)C(F)(F)C(F)(F)C(F)(F)C(F)(F)C(F)(F)C(F)(F)C(F)(F)C(F)(F)F` [Perfluorodecanoic_acid] was greater than 100 µM.
`O=C(O)C(F)(F)C(F)(F)C(F)(F)C(F)(F)C(F)(F)C(F)(F)F` [Perfluoroheptanoic_acid] showed a POD vs vehicle greater than 100 µM.
On the same count and under the same terms, in the case of `NS(=O)(=O)C(F)(F)C(F)(F)C(F)(F)C(F)(F)C(F)(F)C(F)(F)F` [Perfluorohexanesulfonamide] it was greater than 100 µM; in that of `O=S(=O)(O)C(F)(F)C(F)(F)C(F)(F)C(F)(F)C(F)(F)C(F)(F)F` [Perfluorohexanesulfonic_acid], greater than 100 µM.
As for `O=C(O)C(F)(F)C(F)(F)C(F)(F)C(F)(F)C(F)(F)F` [Perfluorohexanoic_acid], the POD vs vehicle is greater than 100 µM.
The compound `O=C(O)C(F)(F)C(F)(F)C(F)(F)C(F)(F)C(F)(F)C(F)(F)C(F)(F)C(F)(F)F` [Perfluorononanoic_acid] yielded a POD vs vehicle greater than 100 µM.
The same measure, in the same setting: in the case of `NC(=O)C(F)(F)C(F)(F)C(F)(F)C(F)(F)C(F)(F)C(F)(F)C(F)(F)F` [Perfluorooctanamide] it was greater than 100 µM.
In turn, `N=C(N)C(F)(F)C(F)(F)C(F)(F)C(F)(F)C(F)(F)C(F)(F)C(F)(F)F` [Perfluorooctanamidine] displayed a POD vs vehicle greater than 100 µM.
For the compound `O=S(=O)(O)C(F)(F)C(F)(F)C(F)(F)C(F)(F)C(F)(F)C(F)(F)C(F)(F)C(F)(F)F` [Perfluorooctanesulfonic_acid], the POD vs vehicle is greater than 100 µM.
Regarding `O=C(O)C(F)(F)C(F)(F)C(F)(F)C(F)(F)C(F)(F)C(F)(F)C(F)(F)F` [Perfluorooctanoic_acid], the POD vs vehicle was greater than 100 µM.
`O=C(O)C(F)(F)C(F)(F)C(F)(F)C(F)(F)F` [Perfluoropentanoic_acid]: the POD vs vehicle is greater than 100 µM.
Consider `O=C(O)C(F)(F)C(F)(F)F` [Perfluoropropanoic_acid], for which the POD vs vehicle was greater than 100 µM.
`O=C(O)C(F)(F)C(F)(F)C(F)(F)C(F)(F)C(F)(F)C(F)(F)C(F)(F)C(F)(F)C(F)(F)C(F)(F)F` [Perfluoroundecanoic_acid] came in with a POD vs vehicle greater than 100 µM.
Still for that read-out and setting: the value for `O=S(=O)([O-])C(F)(F)C(F)(F)C(F)(F)C(F)(F)F.[K+]` [Potassium_perfluorobutanesulfonate] was greater than 100 µM.

For a further assay, the system named is 1535 (donor line of iPSC-derived cardiomyocytes). As to the kind of experiment: POD (EC05) for increase in Ca2+ transient decay-to-rise ratio (QT prolongation) vs vehicle; higher = less potent (higher point of departure). The following applies: exposure time: 90 min. How it is done:
as §1
On to `O=C(O)C(F)(F)C(F)(F)C(F)(F)F` [Perfluorobutanoic_acid], for which the POD vs vehicle was greater than 100 µM.
On to `O=C(O)C(F)(F)C(F)(F)C(F)(F)C(F)(F)C(F)(F)C(F)(F)C(F)(F)C(F)(F)C(F)(F)F` [Perfluorodecanoic_acid], for which the POD vs vehicle was greater than 100 µM.
With `O=C(O)C(F)(F)C(F)(F)C(F)(F)C(F)(F)C(F)(F)C(F)(F)F` [Perfluoroheptanoic_acid], the POD vs vehicle is greater than 100 µM.
As for `NS(=O)(=O)C(F)(F)C(F)(F)C(F)(F)C(F)(F)C(F)(F)C(F)(F)F` [Perfluorohexanesulfonamide], the POD vs vehicle was determined as 16.8 µM.
In the case of `O=S(=O)(O)C(F)(F)C(F)(F)C(F)(F)C(F)(F)C(F)(F)C(F)(F)F` [Perfluorohexanesulfonic_acid], the POD vs vehicle was greater than 100 µM.
Still for that read-out and setting: in the case of `O=C(O)C(F)(F)C(F)(F)C(F)(F)C(F)(F)C(F)(F)F` [Perfluorohexanoic_acid] it was greater than 100 µM; in that of `O=C(O)C(F)(F)C(F)(F)C(F)(F)C(F)(F)C(F)(F)C(F)(F)C(F)(F)C(F)(F)F` [Perfluorononanoic_acid], greater than 100 µM.
On the same count and under the same terms, in the case of `NC(=O)C(F)(F)C(F)(F)C(F)(F)C(F)(F)C(F)(F)C(F)(F)C(F)(F)F` [Perfluorooctanamide] it was greater than 100 µM.
For `N=C(N)C(F)(F)C(F)(F)C(F)(F)C(F)(F)C(F)(F)C(F)(F)C(F)(F)F` [Perfluorooctanamidine], the POD vs vehicle was greater than 100 µM.
On the same count and under the same terms, in the case of `O=S(=O)(O)C(F)(F)C(F)(F)C(F)(F)C(F)(F)C(F)(F)C(F)(F)C(F)(F)C(F)(F)F` [Perfluorooctanesulfonic_acid] it was greater than 100 µM.
Turning to `O=C(O)C(F)(F)C(F)(F)C(F)(F)C(F)(F)C(F)(F)C(F)(F)C(F)(F)F` [Perfluorooctanoic_acid], the POD vs vehicle is greater than 100 µM.
Consider `O=C(O)C(F)(F)C(F)(F)C(F)(F)C(F)(F)F` [Perfluoropentanoic_acid], for which the POD vs vehicle is greater than 100 µM.
On to `O=C(O)C(F)(F)C(F)(F)F` [Perfluoropropanoic_acid], for which the POD vs vehicle was greater than 100 µM.
On the same count and under the same terms, in the case of `O=C(O)C(F)(F)C(F)(F)C(F)(F)C(F)(F)C(F)(F)C(F)(F)C(F)(F)C(F)(F)C(F)(F)C(F)(F)F` [Perfluoroundecanoic_acid] it was greater than 100 µM.
Turning to `O=S(=O)([O-])C(F)(F)C(F)(F)C(F)(F)C(F)(F)F.[K+]` [Potassium_perfluorobutanesulfonate], the POD vs vehicle was greater than 100 µM.

Another assay relates to 1434 (donor line of iPSC-derived cardiomyocytes). Described as above. The following applies: exposure time: 90 min. How it is done:
as §1
Consider `O=C(O)C(F)(F)C(F)(F)C(F)(F)F` [Perfluorobutanoic_acid], for which the POD vs vehicle is greater than 100 µM.
In the case of `O=C(O)C(F)(F)C(F)(F)C(F)(F)C(F)(F)C(F)(F)C(F)(F)C(F)(F)C(F)(F)C(F)(F)F` [Perfluorodecanoic_acid], the POD vs vehicle was 19.9 µM.
Same read-out and setting: in the case of `O=C(O)C(F)(F)C(F)(F)C(F)(F)C(F)(F)C(F)(F)C(F)(F)F` [Perfluoroheptanoic_acid] it was greater than 100 µM; in that of `NS(=O)(=O)C(F)(F)C(F)(F)C(F)(F)C(F)(F)C(F)(F)C(F)(F)F` [Perfluorohexanesulfonamide], greater than 100 µM.
As to `O=S(=O)(O)C(F)(F)C(F)(F)C(F)(F)C(F)(F)C(F)(F)C(F)(F)F` [Perfluorohexanesulfonic_acid], the POD vs vehicle was greater than 100 µM.
Take `O=C(O)C(F)(F)C(F)(F)C(F)(F)C(F)(F)C(F)(F)F` [Perfluorohexanoic_acid]: the POD vs vehicle was greater than 100 µM.
Regarding `O=C(O)C(F)(F)C(F)(F)C(F)(F)C(F)(F)C(F)(F)C(F)(F)C(F)(F)C(F)(F)F` [Perfluorononanoic_acid], the POD vs vehicle is greater than 100 µM.
